Values quoted from earlier work in publication PMC10247525 (Colloids and surfaces. B, Biointerfaces, 2023).
In brackets after ≈: the same amount, converted by molar mass. Several values for one entry are separate records, joined by “and”; a condition that tells them apart may be missing. Equal entries are not always repeated.

What was measured:
[1] = cited from earlier work
[2] = cited from earlier work; remark: listed apart in the source
[3] = cited from earlier work; remark: listed apart in the source

In the case of `CC(=O)O[C@H]1C(=O)[C@@]2(C)[C@H]([C@H](OC(=O)c3ccccc3)[C@]3(O)C[C@H](OC(=O)[C@H](O)[C@@H](NC(=O)c4ccccc4)c4ccccc4)C(C)=C1C3(C)C)[C@]1(OC(C)=O)CO[C@@H]1C[C@@H]2O` [Paclitaxel], the solubility in water [1] is given as “sparingly”, the solubility in methanol [2] is given as 50 mg/mL (≈ 58.6 mM) and the “logP (octanol/water)” value [3] is given as 4.

In the case of `O=c1[nH]cc(F)c(=O)[nH]1` [5-Fluorouracil], the solubility in water [1] is listed as 12.5 mg/ml and 96 mM and the solubility in methanol [2] is listed as 18 mg/mL (≈ 138 mM).

In the case of `COc1cccc2c1C(=O)c1c(O)c3c(c(O)c1C2=O)C[C@@](O)(C(=O)CO)C[C@@H]3O[C@H]1C[C@H](N)[C@H](O)[C@H](C)O1` [Doxorubicin], the solubility in water [1] is given as 52 mg/ml and 90 mM and the solubility in methanol [2] is given as “sparingly”.
